Results as given in patent US8158792B2, “Spiropiperidines for use as tryptase inhibitors” (Janssen Pharmaceutica N.V., priority 2007, dated 2012).

Biological target: human lung tryptase
Experiment: β-Tryptase In-Vitro Enzyme Assay
Format: biochemical
Conditions: human lung tryptase 1 nM, substrate H-D-HHT-Ala-Arg-pNa 500 μM, pH 7.4, room temperature
Experimental: The β-tryptase assay was conducted with human lung tryptase (Cortex Biochem #CP3033) in an aqueous buffer (10 mM Tris, 10 mM Hepes, 150 mM NaCl, 0.1% PEG 8000, pH 7.4) using the chromogenic substrate H-D-HHT-Ala-Arg-pNa. […] Percent inhibition was calculated by comparing the initial reaction velocity of samples without inhibitor to those with inhibitor. The initial reaction velocities were analyzed using Microsoft Excel.

IC50 [nM] | SMILES
600 | NCc1ccc2c(c1)C1(CCN(C(=O)/C=C/c3ccc(-c4ccccc4)cc3)CC1)CO2 [Cpd 117, (E)-1-(4-phenyl-phenylethenyl)carbonyl-5′-aminomethyl-spiro[piperidine-4,3′-(2H)-benzo[b]furan]]
260 | Cc1nc(-c2ccc(C(=O)N3CCC4(CC3)COc3ccc(CN)cc34)s2)cs1 [Cpd 206, 1-[5-(2-methyl-thiazol-4-yl)-thien-2-yl]carbonyl-5′-aminomethyl-spiro[piperidine-4,3′-(2H)-benzo[b]furan]]
280 | CCN1CC2(CCN(C(=O)c3ccc(C#Cc4ccccc4)o3)CC2)c2cc(CN)ccc21 [Cpd 320, 1-(5-phenylethynyl-furan-2-yl)carbonyl-1′-ethyl-5′-aminomethyl-spiro[piperidine-4,3′-(2H)-indole]]
28 | CCOC(=O)CC(NNC)C(=O)N1CC2(CCN(C(=O)c3ccc(C#Cc4ccccc4)o3)CC2)c2cc(CN)ccc21 (stereo not drawn) [Cpd 332, 1-(5-phenylethynyl-furan-2-yl)carbonyl-1′-[4-ethoxy-2-(methylamino)amino-1,4-dioxo-butyl]-5′-aminomethyl-spiro[piperidine-4,3′-(2H)-indole]]
3200 | NCc1ccc2c(c1)C1(CCN(C(=O)C#Cc3ccc(O)cc3)CC1)CO2 [Cpd 264, 1-(4-hydroxy-phenylethynyl)carbonyl-5′-aminomethyl-spiro[piperidine-4,3′-(2H)-benzo[b]furan]]
230 | COc1cccc2c1OCC(C(=O)N1CCC3(CC1)COc1ccc(CN)cc13)=C2 [Cpd 197, 1-(8-methoxy-(2H)-chromen-3-yl)carbonyl-5′-aminomethyl-spiro[piperidine-4,3′-(2H)-benzo[b]furan]]
210 | COc1cccc(/C=C/C(=O)N2CCC3(CC2)COc2ccc(CN)cc23)c1 [Cpd 184, (E)-1-(3-methoxy-phenylethenyl)carbonyl-5′-aminomethyl-spiro[piperidine-4,3′-(2H)-benzo[b]furan]]
870 | COc1cccc(C(=O)N2CCC3(CC2)COc2ccc(CN)cc23)c1 [Cpd 53, 1-(3-methoxy-phenyl)carbonyl-5′-aminomethyl-spiro[piperidine-4,3′-(2H)-benzo[b]furan]]
6.5 | NCc1ccc2c(c1)C1(CCN(C(=O)c3sc(SCc4ccccc4)c4c3CCCC4=O)CC1)CO2 [Cpd 214, 1-(3-benzylthio-4-oxo-5,6,7-trihydro-4H-benzo[c]thien-1-yl)carbonyl-5′-aminomethyl-spiro[piperidine-4,3′-(2H)-benzo[b]furan]]
76 | NCc1ccc2c(c1)C1(CCN(C(=O)c3ccc(COc4cccc(Cl)c4)o3)CC1)CO2 [Cpd 134, 1-[5-(3-chloro-phenoxymethyl)-furan-2-yl]carbonyl-5′-aminomethyl-spiro[piperidine-4,3′-(2H)-benzo[b]furan]]
13 | COC(=O)c1ccc(S(=O)(=O)N2CC3(CCN(C(=O)c4ccc(C#Cc5ccccc5)o4)CC3)c3cc(CN)ccc32)o1 [Cpd 345, 1-(5-phenylethynyl-furan-2-yl)carbonyl-1′-(5-methoxycarbonyl-furan-2-yl)sulfonyl-5′-aminomethyl-spiro[piperidine-4,3′-(2H)-indole]]
5500 | NCc1ccc2c(c1)C1(CCN(C(=O)c3ccc(-c4cccc(C(F)(F)F)c4)cc3)CC1)CO2 [Cpd 15, 1-[4-(3-trifluoromethyl-phenyl)-phenyl]carbonyl-5′-aminomethyl-spiro[piperidine-4,3′-(2H)-benzo[b]furan]]
800 | NCc1ccc2c(c1)C1(CCN(C(=O)c3ccc(Oc4ccccc4)cc3)CC1)CO2 [Cpd 62, 1-(4-phenoxy-phenyl)carbonyl-5′-aminomethyl-spiro[piperidine-4,3′-(2H)-benzo[b]furan]]
8000 | NCc1ccc2c(c1)C1(CCN(C(=O)c3ccc(Oc4cc(C(F)(F)F)cc(C(F)(F)F)c4)cc3)CC1)CO2 [Cpd 279, 1-[4-(3,5-bis-trifluoromethyl-phenoxy)-phenyl]carbonyl-5′-aminomethyl-spiro[piperidine-4,3′-(2H)-benzo[b]furan]]
770 | COc1ccc(CC(=O)N2CCC3(CC2)COc2ccc(CN)cc23)cc1OC [Cpd 105, 1-(3,4-dimethoxy-benzyl)carbonyl-5′-aminomethyl-spiro[piperidine-4,3′-(2H)-benzo[b]furan]]
4300 | NCc1ccc2c(c1)C1(CCN(C(=O)CCc3cccc(Cl)c3)CC1)CO2 [Cpd 83, 1-(3-chloro-phenethyl)carbonyl-5′-aminomethyl-spiro[piperidine-4,3′-(2H)-benzo[b]furan]]
520 | CS(=O)(=O)c1cccc(C(=O)N2CCC3(CC2)COc2ccc(CN)cc23)c1 [Cpd 72, 1-(3-methylsulfonyl-phenyl)carbonyl-5′-aminomethyl-spiro[piperidine-4,3′-(2H)-benzo[b]furan]]
820 | NCc1ccc2c(c1)C1(CCN(C(=O)c3ccccc3)CC1)CO2 [Cpd 36, 1-phenylcarbonyl-5′-aminomethyl-spiro[piperidine-4,3′-(2H)-benzo[b]furan]]

IC50 [nM] | SMILES
2500 | NCc1ccc2c(c1)C1(CCN(C(=O)c3ccc(C4CCCCC4)cc3)CC1)CO2 [Cpd 73, 1-(4-cyclohexyl-phenyl)carbonyl-5′-aminomethyl-spiro[piperidine-4,3′-(2H)-benzo[b]furan]]
200 | NCc1ccc2c(c1)C1(CCN(C(=O)c3cc4c(s3)CCC4)CC1)CO2 [Cpd 246, 1-(5,6-dihydro-4H-cyclopenta[b]thien-2-yl)carbonyl-5′-aminomethyl-spiro[piperidine-4,3′-(2H)-benzo[b]furan]]
450 | NCc1ccc2c(c1)C1(CCN(C(=O)c3cccc(NC(N)=S)c3)CC1)CO2 [Cpd 5, 1-(3-aminothiocarbonylamino-phenyl)carbonyl-5′-aminomethyl-spiro[piperidine-4,3′-(2H)-benzo[b]furan]]
750 | CCOCCOc1cccc(/C=C/C(=O)N2CCC3(CC2)COc2ccc(CN)cc23)c1 [Cpd 302, (E)-1-[3-(2-ethoxy-ethoxy)-phenylethenyl]carbonyl-5′-aminomethyl-spiro[piperidine-4,3′-(2H)-benzo[b]furan]]
220 | NCc1ccc2c(c1)C1(CCN(S(=O)(=O)c3ccc(Cl)c(Cl)c3)CC1)CO2 [Cpd 280, 1-(3,4-dichlorophenyl)sulfonyl-5′-aminomethyl-spiro[piperidine-4,3′-(2H)-benzo[b]furan]]
37 | NCc1ccc2c(c1)C1(CCN(C(=O)c3cc4ccccc4s3)CC1)CO2 [Cpd 110, 1-benzothien-2-ylcarbonyl-5′-aminomethyl-spiro[piperidine-4,3′-(2H)-benzo[b]furan]]
2400 | COc1cccc(CCC(=O)N2CCC3(CC2)COc2ccc(CN)cc23)c1 [Cpd 101, 1-(3-methoxy-phenethyl)carbonyl-5′-aminomethyl-spiro[piperidine-4,3′-(2H)-benzo[b]furan]]
23 | COC(=O)CN1CC2(CCN(C(=O)c3ccc(C#Cc4ccccc4)o3)CC2)c2cc(CN)ccc21 [Cpd 343, 1-(5-phenylethynyl-furan-2-yl)carbonyl-1′-[(methoxycarbonyl)methyl]-5′-aminomethyl-spiro[piperidine-4,3′-(2H)-indole]]
4300 | NCc1ccc2c(c1)C1(CCN(C(=O)C3CC(=O)c4ccccc43)CC1)CO2 (stereo not drawn) [Cpd 287, 1-(3-oxo-indan-1-yl)carbonyl-5′-aminomethyl-spiro[piperidine-4,3′-(2H)-benzo[b]furan]]
71 | NCc1ccc2c(c1)C1(CCN(C(=O)c3sc4ccccc4c3Cl)CC1)CO2 [Cpd 166, 1-(3-chloro-benzo[b]thien-2-yl)carbonyl-5′-aminomethyl-spiro[piperidine-4,3′-(2H)-benzo[b]furan]]
7.3 | NCc1ccc2c(c1)C1(CCN(C(=O)c3ccc(C#Cc4ccccc4)o3)CC1)NC2=O [Cpd 317, 1-(5-phenylethynyl-furan-2-yl)carbonyl-1′-oxo-5′-aminomethyl-spiro[piperidine-4,3′-1H-isoindole]]
190 | NCc1ccc2c(c1)C1(CCN(C(=O)c3ccc4c(c3)OCO4)CC1)CO2 [Cpd 68, 1-benzodioxol-5-ylcarbonyl-5′-aminomethyl-spiro[piperidine-4,3′-(2H)-benzo[b]furan]]
820 | NCc1ccc2c(c1)C1(CCN(C(=O)c3cccc(C(F)(F)F)c3)CC1)CO2 [Cpd 47, 1-(3-trifluoromethyl-phenyl)carbonyl-5′-aminomethyl-spiro[piperidine-4,3′-(2H)-benzo[b]furan]]
4500 | NCc1ccc2c(c1)C1(CCN(C(=O)c3ccc(Cl)c(Cl)c3)C(=O)C1)CO2 (stereo not drawn) [Cpd 262, 1-(3,4-dichlorophenyl)carbonyl-2-oxo-5′-aminomethyl-spiro[piperidine-4,3′-(2H)-benzo[b]furan]]
330 | NCc1ccc2c(c1)C1(CCN(C(=O)c3ccc(-c4cccc(C(F)(F)F)c4)o3)CC1)CO2 [Cpd 135, 1-[5-(3-trifluoromethyl-phenyl)-furan-2-yl]carbonyl-5′-aminomethyl-spiro[piperidine-4,3′-(2H)-benzo[b]furan]]
130 | NCc1ccc2c(c1)C1(CCN(C(=O)/C=C/c3cccc4ccccc34)CC1)CO2 [Cpd 188, (E)-1-(naphthalen-1-ylethenyl)carbonyl-5′-aminomethyl-spiro[piperidine-4,3′-(2H)-benzo[b]furan]]
51 | CSc1sc(C(=O)N2CCC3(CC2)COc2ccc(CN)cc23)c(-c2ccc(Cl)cc2)c1C#N [Cpd 202, 1-[3-(4-chloro-phenyl)-4-cyano-5-methylthio-thien-2-yl]carbonyl-5′-aminomethyl-spiro[piperidine-4,3′-(2H)-benzo[b]furan]]
37 | Cc1c(C(=O)N2CCC3(CC2)COc2ccc(CN)cc23)oc2cc(-c3ccccc3)ccc12 [Cpd 228, 1-(3-methyl-6-phenyl-benzo[b]furan-2-yl)carbonyl-5′-aminomethyl-spiro[piperidine-4,3′-(2H)-benzo[b]furan]]
